In the NIST ThermoML archive (doi:10.1016/j.jct.2012.01.007):
Where “and” joins values, the source holds several entries; their conditions need not be identical. Equal values may be shown once.

Test: osmotic coefficient (dimensionless); mn = molality of the nth substance listed, in mol/kg
Details: 298.15 K, Liquid, isopiestic method

CCCC[n+]1ccc(N(C)C)cc1.F[B-](F)(F)F [4-(dimethylamino)-1-butylpyridinium tetrafluoroborate] + CCO
Details | osmotic coefficient
m1 = 0 | 1
m1 = 0.3225 | 0.606
m1 = 0.333 | 0.526
m1 = 0.3357 | 0.6
m1 = 0.3459 | 0.506
m1 = 0.4422 | 0.468
m1 = 0.4806 | 0.429 and 0.445
m1 = 0.4942 | 0.418
m1 = 0.5101 | 0.42 and 0.404
m1 = 0.6548 | 0.383
m1 = 0.7459 | 0.394
m1 = 0.8064 | 0.365
m1 = 0.9658 | 0.343
m1 = 1.075 | 0.327
m1 = 1.154 | 0.339
m1 = 1.195 | 0.318
m1 = 1.289 | 0.325
m1 = 1.393 | 0.322
m1 = 1.613 | 0.321
m1 = 1.945 | 0.304
m1 = 2.716 | 0.316
m1 = 3.676 | 0.336
m1 = 3.763 | 0.326
m1 = 5.468 | 0.283
m1 = 7.248 | 0.218

CCCCCC[n+]1ccc(N(C)C)cc1.F[B-](F)(F)F [4-(dimethylamino)-1-hexylpyridinium tetrafluoroborate] + CCO
Details | osmotic coefficient
m1 = 0 | 0.999
m1 = 0.3863 | 0.523
m1 = 0.4915 | 0.435
m1 = 0.6139 | 0.417
m1 = 0.7149 | 0.447
m1 = 0.7716 | 0.429
m1 = 1.225 | 0.413 and 0.431
m1 = 1.39 | 0.375
m1 = 1.495 | 0.39
m1 = 1.778 | 0.35
m1 = 1.799 | 0.409
m1 = 2.283 | 0.376
m1 = 2.753 | 0.378
m1 = 3.718 | 0.351
m1 = 4.128 | 0.37
m1 = 5.581 | 0.384

CCCCC[n+]1ccc(N(C)C)cc1.F[B-](F)(F)F [4-(dimethylamino)-1-pentylpyridinium tetrafluoroborate] + CCO
Details | osmotic coefficient
m1 = 0 | 0.999
m1 = 0.4148 | 0.513
m1 = 0.4808 | 0.455
m1 = 0.5469 | 0.468
m1 = 0.568 | 0.397
m1 = 0.6869 | 0.376
m1 = 0.8468 | 0.359
m1 = 0.9582 | 0.335
m1 = 1.291 | 0.38
m1 = 1.757 | 0.331
m1 = 1.899 | 0.327
m1 = 2.515 | 0.327
m1 = 4.304 | 0.283
m1 = 5.313 | 0.288
m1 = 7.334 | 0.301
